According to patent US8883801B2, “Substituted pyrazolo[1,5-a]pyrimidines as mTOR inhibitors” (Merck Sharp & Dohme Corp., priority 2010, dated 2014):
Where two headings read alike, the source gives them in different places.

Legend:
[1] = tested on: mTORC2 activity: phosphorylated AKT Ser473 (pAKT S473) in PC3 cells; test: mTOR target engagement assay, immunofluorescent cell-based, mTORC2 readout; details: Homo sapiens, PC-3, 1.5 h, 90 min treatment
Protocol: The target engagement of mTOR kinase inhibitors was evaluated using an immunofluorescent cell-based assay. In this assay, inhibition of mTORC1 activity was measured by the reduction in the level of phosphorylated 4E-BP1Thr37/46 (p4E-BP1 Thr37/46), and inhibition of mTORC2 activity was measured by the reduction of phosphorylated AKTSer473 (pAKT S473).
PC3 cells (prostate tumor cell-line that contains a mutation in the tumor suppressor PTEN, that promotes the phosphorylation and activation of AKT and 4E-BP1) were used in the immunofluorescence assay. PC3 cells were seeded on 384 well plates (black clear bottom, Matrix #4332) overnight. PC3 cells were then treated with 40 μl of the serially diluted test compounds (in 5% fetal bovine serum, F12 medium containing 0.25% DMSO) for ninety minutes at 37° C. The test compound solution was removed, and the plates were washed gently two times with 25 μl phosphate buffered saline (PBS). The cells were fixed by adding 25 μl of Prefer reagent (from Anatech LTD, Cat#414, a glyoxal fixative for fixing proteins within a cell) for sixty minutes followed by three washes with PBS. 5% Goat serum in PBS/0.3% Triton was used to block non-specific binding (60 minutes).
The primary antibodies targeting pAKT S473 and p4E-BP1 Thr37/46 were diluted into PBS/0.3% Triton and incubated with the cells overnight at 4° C. The antibodies targeting pAKTS473 (Cat#4085, Cell signaling) and p4E-BP1 Thr37/46 (Cat#2855, Cell signaling) were used at a 1:100 dilution. Plates were washed three times with PBS/0.1% Tween 20 before adding the secondary antibody at a 1:200 dilution. (goat anti-rabbit containing a fluorescent label, Alexa Fluor 488, Cat#A11008, Invitrogen) in PBS/0.3% Triton for 60 minutes.
Finally, the plates were washed three times with PBS/0.1% Tween 20 and the fluorescent intensity was read using an Analyst HT from Molecular Devices. The fluorescent intensity values from the serially diluted compound treatment group were analyzed using the Xlfit 4 program ([…]) (Formula 205: Y=Bottom+(Top-Bottom)/(1+(IC50/X)^Hillslope) to generate the IC50 value. Where Top is the maximum signal without Compound (+DMSO only) and Bottom represents maximum inhibition. Y is the fluorescence at some compound concentration. The control used to determine the fluorescent intensities for 100% pAKT S473 or 100% phosphorylated p4E-BP1 Thr37/46 were measured from untreated wells that contained only DMSO, instead of test compound.

human mTOR enzyme = human mTOR enzyme (Homo sapiens, UniProt P42345); test: HTRF mTOR enzyme (kinase) assay; format: biochemical; details: 5 μM ATP, 0.2 μM GST-S6K, read-out: hMTOR IC50
Sequence of human mTOR enzyme (P42345 1360-2549 limits assumed): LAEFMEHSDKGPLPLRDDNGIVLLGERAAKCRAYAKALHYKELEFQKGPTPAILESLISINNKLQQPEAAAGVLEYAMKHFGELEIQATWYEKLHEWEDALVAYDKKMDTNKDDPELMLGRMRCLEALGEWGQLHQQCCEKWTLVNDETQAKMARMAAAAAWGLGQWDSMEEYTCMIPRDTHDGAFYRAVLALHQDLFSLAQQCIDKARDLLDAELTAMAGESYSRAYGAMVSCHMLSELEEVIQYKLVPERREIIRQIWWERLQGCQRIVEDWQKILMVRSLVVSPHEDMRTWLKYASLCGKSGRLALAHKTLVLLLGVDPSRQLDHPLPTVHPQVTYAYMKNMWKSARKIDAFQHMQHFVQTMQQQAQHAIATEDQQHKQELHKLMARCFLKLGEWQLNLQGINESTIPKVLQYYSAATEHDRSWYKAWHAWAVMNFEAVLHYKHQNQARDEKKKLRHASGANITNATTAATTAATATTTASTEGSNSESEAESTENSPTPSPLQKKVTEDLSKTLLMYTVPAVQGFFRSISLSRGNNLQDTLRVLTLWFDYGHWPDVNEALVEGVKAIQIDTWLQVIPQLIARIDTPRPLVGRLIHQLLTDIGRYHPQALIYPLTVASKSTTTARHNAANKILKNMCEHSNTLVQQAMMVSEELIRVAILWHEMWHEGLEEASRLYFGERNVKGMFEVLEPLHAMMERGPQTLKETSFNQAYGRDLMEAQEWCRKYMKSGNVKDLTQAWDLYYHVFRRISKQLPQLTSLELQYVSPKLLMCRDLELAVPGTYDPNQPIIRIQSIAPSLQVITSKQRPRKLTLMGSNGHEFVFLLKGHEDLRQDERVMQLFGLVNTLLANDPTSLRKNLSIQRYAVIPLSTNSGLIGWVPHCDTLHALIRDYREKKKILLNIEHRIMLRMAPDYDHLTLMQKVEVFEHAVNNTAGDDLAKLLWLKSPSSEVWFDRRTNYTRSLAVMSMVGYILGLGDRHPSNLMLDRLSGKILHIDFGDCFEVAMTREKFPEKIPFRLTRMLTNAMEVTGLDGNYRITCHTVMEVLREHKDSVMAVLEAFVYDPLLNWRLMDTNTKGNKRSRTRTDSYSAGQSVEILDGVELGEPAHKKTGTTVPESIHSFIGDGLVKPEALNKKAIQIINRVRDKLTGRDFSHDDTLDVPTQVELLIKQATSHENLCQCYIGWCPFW

Compound | IC50 ([1]; rated class) | IC50 (human mTOR enzyme; rated class) | IC50 ([1]; numeric value) | IC50 (human mTOR enzyme; numeric value)
CS[C@]1(C(=O)O)CC[C@H](c2nc3c(-c4cnn(-c5ccccc5)c4)cnn3c(N)c2Br)CC1 [Compound 9, (1S,4S)-4-(7-amino-6-bromo-3-(1-phenyl-1H-pyrazol-4-yl)pyrazolo[1,5-a]pyrimidin-5-yl)-1-(methylthio)-cyclohexane-carboxylic acid] | 100 to 1000 nM | 1 to 100 nM |  | 
COC[C@]1(C(=O)O)CC[C@H](c2nc3c(-c4cnc5ccc(F)cc5c4)cnn3c(N)c2Br)CC1 [Compound 7, (1R,4R)-4-(7-amino-6-bromo-3-(6-fluoroquinolin-3-yl)pyrazolo[1,5-a]pyrimidin-5-yl)-1-(methoxymethyl)-cyclohexane-carboxylic acid] | 1000 to 2000 nM | 1 to 100 nM |  | 
Nc1c(Br)c([C@H]2CC[C@](OCCN3CCOCC3)(C(=O)O)CC2)nc2c(-c3ccc(-c4ccccc4)nc3)cnn12 [Compound 66, (1S,4S)-4-(7-amino-6-bromo-3-(6-phenylpyridin-3-yl)pyrazolo[1,5-a]pyrimidin-5-yl)-1-(2-morpholinoethoxy) cyclohexanecarboxylic acid] | 1000 to 2000 nM | 1 to 100 nM |  | 
CO[C@]1(CO)CC[C@H](c2nc3c(-c4ccc(-c5ccccc5)nc4)cnn3c(N)c2C(C)=O)CC1 [Compound 85, 1-(7-amino-5-((1S,4S)-4-(hydroxymethyl)-4-methoxycyclohexyl)-3-(6-phenylpyridin-3-yl)pyrazolo[1,5-a]pyrimidin-6-yl)ethanone] | 100 to 1000 nM | 1 to 100 nM |  | 
CO[C@]1(C(=O)O)CC[C@H](c2nc3c(-c4cnc5ccc(F)cc5c4)cnn3c(N)c2C(C)=O)CC1 [Compound 38, (1S,4S)-4-(6-acetyl-7-amino-3-(6-fluoroquinolin-3-yl)pyrazolo[1,5-a]pyrimidin-5-yl)-1-methoxycyclohexane-carboxylic acid] | 100 to 1000 nM | 1 to 100 nM |  | 
CC(=O)c1c(C2CCC(O)(CO)CC2)nc2c(-c3cnc4ccc(F)cc4c3)cnn2c1N (stereo not shown) [Compound 142, 1-(7-amino-3-(6-fluoroquinolin-3-yl)-5-(4-hydroxy-4-(hydroxymethyl)-cyclohexyl)-pyrazolo-[1,5-a]pyrimidin-6-yl)ethanone] | 1 to 100 nM | 1 to 100 nM |  | 
COCCO[C@]1(C(=O)O)CC[C@H](c2nc3c(-c4ccc(-c5ccccc5)nc4)cnn3c(N)c2C(C)=O)CC1 [Compound 56, (1S,4S)-4-(6-acetyl-7-amino-3-(6-phenylpyridin-3-yl)pyrazolo[1,5-a]pyrimidin-5-yl)-1-(2-methoxyethoxy) cyclohexanecarboxylic acid] | 5000 to 15000 nM | 1 to 100 nM |  | 
COCCOC1(CO)CCC(c2nc3c(-c4cnn(-c5ccccc5)c4)cnn3c(N)c2C(C)=O)CC1 (stereo not shown) [Compound 87, 1-(7-amino-5-(4-(hydroxymethyl)-4-(2-methoxyethoxy)-cyclohexyl)-3-(1-phenyl-1H-pyrazol-4-yl)pyrazolo[1,5-a]pyrimidin-6-yl)ethanone] | 100 to 1000 nM | 1 to 100 nM |  | 
CO[C@]1(CO)CC[C@@H](c2nc3c(-c4ccc(-c5ccccc5)nc4)cnn3c(N)c2C(C)=O)CC1 [Compound 84, 1-(7-amino-5-((1R,4R)-4-(hydroxymethyl)-4-methoxycyclohexyl)-3-(6-phenylpyridin-3-yl)pyrazolo[1,5-a]pyrimidin-6-yl)ethanone] | 100 to 1000 nM | 1 to 100 nM |  | 
COc1ccc(-c2ccc(-c3cnn4c(N)c(C(C)=O)c(C5CCC(CO)(OC)CC5)nc34)cn2)cn1 (stereo not shown) [Compound 171, 1-(7-amino-5-(4-(hydroxymethyl)-4-methoxycyclohexyl)-3-(6′-methoxy-2,3′-bipyridin-5-yl)pyrazolo[1,5-a]pyrimidin-6-yl)ethanone] | 2000 to 5000 nM | 1 to 100 nM |  | 
COCCOC1(CO)CCC(c2nc3c(-c4cnn(-c5ccccc5)c4)cnn3c(N)c2Br)CC1 (stereo not shown) [Compound 83, (4-(7-amino-6-bromo-3-(1-phenyl-1H-pyrazol-4-yl)pyrazolo[1,5-a]pyrimidin-5-yl)-1-(2-methoxyethoxy)-cyclohexyl)methanol] | 1000 to 2000 nM | 1 to 100 nM |  | 
Nc1c(Br)c(C2CCC(O)(CO)CC2)nc2c(-c3cnn(-c4ccccc4)c3)cnn12 (stereo not shown) [Compound 135, 4-(7-amino-6-bromo-3-(1-phenyl-1H-pyrazol-4-yl)pyrazolo[1,5-a]pyrimidin-5-yl)-1-(hydroxymethyl)-cyclohexanol] | 100 to 1000 nM | 1 to 100 nM |  | 
COC(=O)c1cc(-c2ccc(-c3cnn4c(N)c(C(C)=O)c([C@H]5CC[C@@](O)(CO)CC5)nc34)cn2)ccc1OC [Compound 153, methyl 5-(5-(6-acetyl-7-amino-5-((1R,4R)-4-hydroxy-4-(hydroxymethyl)-cyclohexyl)-pyrazolo-[1,5-a]pyrimidin-3-yl)pyridin-2-yl)-2-methoxybenzoate] | 5000 to 15000 nM | 1 to 100 nM |  | 
CC(=O)c1c(C2CCC(CO)(C(=O)O)CC2)nc2c(-c3cnn(-c4ccccc4)c3)cnn2c1N (stereo not shown) [Compound 132, 4-(6-acetyl-7-amino-3-(1-phenyl-1H-pyrazol-4-yl)pyrazolo[1,5-a]pyrimidin-5-yl)-1-(hydroxymethyl)cyclohexanecarboxylic acid] | 100 to 1000 nM | 1 to 100 nM |  | 
CO[C@]1(C(=O)O)CC[C@H](c2nc3c(-c4cnc5ccc(F)cc5c4)cnn3c(N)c2Br)CC1 [Compound 32, (1S,4S)-4-(7-amino-6-bromo-3-(6-fluoroquinolin-3-yl)pyrazolo[1,5-a]pyrimidin-5-yl)-1-methoxycyclohexane-carboxylic acid] | 100 to 1000 nM | 1 to 100 nM |  | 
COCCOC[C@]1(C(=O)O)CC[C@H](c2nc3c(-c4ccc(-c5ccccc5)nc4)cnn3c(N)c2Br)CC1 [Compound 11, (1R,4R)-4-(7-amino-6-bromo-3-(6-phenylpyridin-3-yl)pyrazolo[1,5-a]pyrimidin-5-yl)-1-((2-methoxyethoxy)methyl)cyclohexane-carboxylic acid] |  |  | 2030 nM | 4.61 nM
COCCO[C@]1(C(=O)NN)CC[C@@H](c2nc3c(-c4cnn(-c5ccccc5)c4)cnn3c(N)c2S(C)(=O)=O)CC1 [Compound 107, (1R,4R)-4-(7-amino-6-(methylsulfonyl)-3-(1-phenyl-1H-pyrazol-4-yl)pyrazolo[1,5-a]pyrimidin-5-yl)-1-(2-methoxyethoxy)-cyclohexane-carbohydrazide] | 100 to 1000 nM | 1 to 100 nM |  | 
COCCOC[C@]1(CO)CC[C@@H](c2nc3c(-c4ccc(-c5ccccc5)nc4)cnn3c(N)c2Br)CC1 [Compound 169, ((1R,4R)-4-(7-amino-6-bromo-3-(6-phenylpyridin-3-yl)pyrazolo[1,5-a]pyrimidin-5-yl)-1-((2-methoxyethoxy)-methyl)cyclohexyl)-methanol] | 2000 to 5000 nM | 1 to 100 nM |  | 
Nc1c(Br)c([C@H]2CC[C@@](O)(CC(=O)O)CC2)nc2c(-c3cnn(-c4ccccc4)c3)cnn12 [Compound 79, 2-((1R,4R)-4-(7-amino-6-bromo-3-(1-phenyl-1H-pyrazol-4-yl)pyrazolo[1,5-a]pyrimidin-5-yl)-1-hydroxycyclohexyl)-acetic acid] | 100 to 1000 nM | 1 to 100 nM |  | 
CS(=O)(=O)C1(C(=O)O)CCC(c2nc3c(-c4cnn(-c5ccccc5)c4)cnn3c(N)c2Br)CC1 (stereo not shown) [Compound 27, 4-(7-amino-6-bromo-3-(1-phenyl-1H-pyrazol-4-yl)pyrazolo[1,5-a]pyrimidin-5-yl)-1-(methylsulfonyl)cyclohexanecarboxylic acid] | 2000 to 5000 nM | 1 to 100 nM |  | 
COC[C@]1(O)CC[C@@H](c2nc3c(-c4ccc(-c5ccccc5)nc4)cnn3c(N)c2Br)CC1 [Compound 164, (1S,4S)-4-(7-amino-6-bromo-3-(6-phenylpyridin-3-yl)pyrazolo[1,5-a]pyrimidin-5-yl)-1-(methoxymethyl)cyclohexanol] | 1000 to 2000 nM | 1 to 100 nM |  | 
COCC1(C(=O)O)CCC(c2nc3c(-c4ccc(-c5ccccc5)nc4)cnn3c(N)c2Br)CC1 (stereo not shown) [Compound 5, 4-(7-amino-6-bromo-3-(6-phenylpyridin-3-yl)pyrazolo[1,5-a]pyrimidin-5-yl)-1-(methoxymethyl)-cyclohexane-carboxylic acid] | 100 to 1000 nM | 1 to 100 nM |  | 
CC(=O)c1c(C2CCC(O)(CO)CC2)nc2c(-c3ccc(-c4ccccc4)nc3)cnn2c1N (stereo not shown) [Compound 138, 1-(7-amino-5-(4-hydroxy-4-(hydroxymethyl)cyclohexyl)-3-(6-phenylpyridin-3-yl)pyrazolo[1,5-a]pyrimidin-6-yl)ethanone] | 100 to 1000 nM | 1 to 100 nM |  | 
